These results are taken from patent US7863449B2, “Modulators of muscarinic receptors” (Vertex Pharmaceuticals Incorporated, priority 2004, dated 2011).

The target of experiment [1] is T1, M4 muscarinic receptor (Homo sapiens, UniProt P08173).
T1 construct: expressed in transfected cells; host or cells: CHO (M4-CHO)
T1 sequence (P08173 1-479): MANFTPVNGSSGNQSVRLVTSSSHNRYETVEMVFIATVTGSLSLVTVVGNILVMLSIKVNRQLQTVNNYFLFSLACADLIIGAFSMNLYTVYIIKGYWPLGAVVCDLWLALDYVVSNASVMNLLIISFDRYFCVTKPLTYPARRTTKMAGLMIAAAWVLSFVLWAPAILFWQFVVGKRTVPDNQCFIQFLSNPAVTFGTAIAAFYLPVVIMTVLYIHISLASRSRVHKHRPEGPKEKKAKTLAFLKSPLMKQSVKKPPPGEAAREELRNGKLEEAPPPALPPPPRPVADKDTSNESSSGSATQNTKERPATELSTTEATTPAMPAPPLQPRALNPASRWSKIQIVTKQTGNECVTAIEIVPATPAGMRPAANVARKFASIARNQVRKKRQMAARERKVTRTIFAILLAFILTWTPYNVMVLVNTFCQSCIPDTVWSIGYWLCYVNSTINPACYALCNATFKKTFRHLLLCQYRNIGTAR
Put plainly: Functional mobilization of intracellular calcium (FLIPR), M4-CHO cells. In kind it is cell-based. The following applies: for Emax: 100% efficacy is the maximum response obtained using Carbachol as a control; for M4 Activity: M4-CHO cells, FLIPR calcium mobilization. An outline of the steps: (§1)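 CHO cells expressing M1 or M4, loaded with Fluo-3 AM or Calcium 3 dye with 1 mM probenecid, 0.5% DMSO final. Agonist mode: compound added directly; antagonist mode: 15 min pre-incubation (or co-application) before carbachol at EC80. Fluorescence recorded 60 s on FLIPR.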
A general note: A change in cytosolic calcium serves as a functional read-out for many receptors and channels.

Experiment [2] has as its target T2, M1 muscarinic receptor (Homo sapiens, UniProt P11229).
T2 construct: expressed in transfected cells; host or cells: CHO (M1-CHO)
T2 sequence (P11229 1-460): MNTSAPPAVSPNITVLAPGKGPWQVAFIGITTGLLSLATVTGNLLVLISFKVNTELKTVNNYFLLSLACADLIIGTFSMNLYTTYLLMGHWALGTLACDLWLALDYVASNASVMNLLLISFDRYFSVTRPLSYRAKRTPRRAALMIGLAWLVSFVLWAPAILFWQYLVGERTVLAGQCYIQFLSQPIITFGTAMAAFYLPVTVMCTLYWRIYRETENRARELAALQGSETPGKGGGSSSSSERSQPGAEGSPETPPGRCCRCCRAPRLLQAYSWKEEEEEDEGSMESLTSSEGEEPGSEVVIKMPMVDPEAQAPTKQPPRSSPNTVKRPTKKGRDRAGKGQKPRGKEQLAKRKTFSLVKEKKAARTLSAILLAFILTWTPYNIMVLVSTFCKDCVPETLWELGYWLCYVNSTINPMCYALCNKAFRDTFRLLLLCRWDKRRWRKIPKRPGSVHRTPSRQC
Kind of experiment: Functional mobilization of intracellular calcium (FLIPR), M1-CHO cells. In kind it is cell-based. The following applies: for Emax: 100% efficacy is the maximum response obtained using Carbachol as a control; for M1 Activity: M1-CHO cells, FLIPR calcium mobilization. An outline of the steps:
as §1

For orientation: Emax means the greatest response seen or fitted, relative to the assay's reference. Consider `CCOC(=O)N1C2CCC1CC(N1CCC3(CC1)CN(C(=O)C1(C(F)(F)F)CC1)Cc1ccccc13)C2` (stereo not drawn) [compound 64], for which, in experiment [1], the Emax fell in the range of 25 to 100% and the “M4 Activity” value is on record as “+++ (activity was measured to be less than 1.0 μM)”. For the same compound, in experiment [2], the Emax was 25 to 100% and the “M1 Activity” value was “+++ (activity was measured to be less than 1.0 μM)”.

In the case of `CC(=O)N1Cc2ccccc2C2(CCN(CC3=C(C)C=CCC3(C)C)CC2)C1` [compound 65], in experiment [1], the Emax lay in the range of 25 to 100% and the “M4 Activity” value is recorded as “+ (activity was measured to be greater than 5.0 μM)”. Besides, in experiment [2], the Emax was in the range of 25 to 100% and the “M1 Activity” value is reported as “+ (activity was measured to be greater than 5.0 μM)”.

Regarding `COc1ccc(CN2CCC3(CC2)CN(C(C)=O)Cc2ccccc23)cc1` [compound 66], in experiment [1], the Emax was less than 25% and the “M4 Activity” value was “+ (activity was measured to be greater than 5.0 μM)”. In experiment [2], the Emax was less than 25% and the “M1 Activity” value is “+ (activity was measured to be greater than 5.0 μM)”.

Consider `CCOC(=O)N1C2CCC1CC(N1CCC3(CC1)CN(S(=O)(=O)c1ccc(OC(F)(F)F)cc1)Cc1ccccc13)C2` (stereo not drawn) [compound 67], for which, in experiment [1], the Emax lay in the range of 25 to 100% and the “M4 Activity” value is listed as “+++ (activity was measured to be less than 1.0 μM)”. In experiment [2], the Emax was 25 to 100% and the “M1 Activity” value is “++ (activity was measured to be from 1.0 μM to 5.0 μM)”.

On to `CCOC(=O)C1CCC(N2CCC3(CC2)CN(C(C)=O)Cc2ccccc23)CC1` (stereo not drawn) [compound 68], for which, in experiment [1], the maximum response (Emax) lay within 25 to 100% and the “M4 Activity” value is “+++ (activity was measured to be less than 1.0 μM)”. In experiment [2], the Emax was 25 to 100% and the “M1 Activity” value was “+++ (activity was measured to be less than 1.0 μM)”.

With `CCOC(=O)N1C2CCC1CC(N1CCC3(CC1)CN(S(=O)(=O)c1ccccc1Cl)Cc1ccccc13)C2` (stereo not drawn) [compound 69], in experiment [1], the Emax was in the range of 25 to 100% and the “M4 Activity” value is “+++ (activity was measured to be less than 1.0 μM)”. In addition, in experiment [2], the Emax was in the range of 25 to 100% and the “M1 Activity” value is listed as “+++ (activity was measured to be less than 1.0 μM)”.

Regarding `CCOC(=O)N1CCC(CN2CCC3(CC2)CN(S(C)(=O)=O)Cc2ccccc23)CC1` [compound 70], in experiment [1], the Emax lay in the range of 25 to 100% and the “M4 Activity” value was “+++ (activity was measured to be less than 1.0 μM)”. Moreover, in experiment [2], the maximal effect (Emax) was 25 to 100% and the “M1 Activity” value is “+++ (activity was measured to be less than 1.0 μM)”.

For the compound `CCOC(=O)N1C2CCC1CC(N1CCC3(CC1)CN(C(=O)c1ccc(F)cc1)Cc1ccccc13)C2` (stereo not drawn) [compound 71], in experiment [1], the Emax is less than 25% and the “M4 Activity” value was “+ (activity was measured to be greater than 5.0 μM)”. Also, in experiment [2], the Emax was in the range of 25 to 100% and the “M1 Activity” value was “+++ (activity was measured to be less than 1.0 μM)”.

Consider `CCOC(=O)N1CCC(CN2CCC3(CC2)CN(C(=O)Oc2ccc(F)cc2)Cc2ccccc23)CC1` [compound 72], for which, in experiment [1], the Emax fell in the range of 25 to 100% and the “M4 Activity” value is on record as “+++ (activity was measured to be less than 1.0 μM)”. Further, in experiment [2], the Emax was 25 to 100% and the “M1 Activity” value is recorded as “+++ (activity was measured to be less than 1.0 μM)”.

With `CCOC(=O)N1C2CCC1CC(N1CCC3(CC1)CN(C(=O)OCCOC)Cc1ccccc13)C2` (stereo not drawn) [compound 73], in experiment [1], the Emax lay within 25 to 100% and the “M4 Activity” value is on record as “+++ (activity was measured to be less than 1.0 μM)”. In experiment [2], the Emax is 25 to 100% and the “M1 Activity” value was “+++ (activity was measured to be less than 1.0 μM)”.

On to `COC(=O)N1CCC(CN2CCC3(CC2)CN(C(C)=O)Cc2ccccc23)CC1` [compound 74], for which, in experiment [1], the maximal response (Emax) lay within 25 to 100% and the “M4 Activity” value is on record as “+++ (activity was measured to be less than 1.0 μM)”. For the same compound, in experiment [2], the Emax lay in the range of 25 to 100% and the “M1 Activity” value was “+++ (activity was measured to be less than 1.0 μM)”.

With `CC(=O)CN1CCC2(CC1)CN(C(C)=O)Cc1ccccc12` [compound 78], in experiment [1], the Emax fell in the range of 25 to 100% and the “M4 Activity” value is on record as “+ (activity was measured to be greater than 5.0 μM)”. Moreover, in experiment [2], the Emax is 25 to 100% and the “M1 Activity” value was “+ (activity was measured to be greater than 5.0 μM)”.

Regarding `CCOC(=O)N1CCC(CN2CCC3(CC2)CN(C(=O)c2cc4ccccc4s2)Cc2ccccc23)CC1` [compound 80], in experiment [1], the Emax was 25 to 100% and the “M4 Activity” value is “+++ (activity was measured to be less than 1.0 μM)”. For the same compound, in experiment [2], the Emax fell in the range of 25 to 100% and the “M1 Activity” value is “+++ (activity was measured to be less than 1.0 μM)”.

`CCOC(=O)N1CCC(N2CCC3(CC2)CN(C(=O)Nc2c(C)noc2C)Cc2ccccc23)CC1` [compound 84]: in experiment [1], the Emax is less than 25% and the “M4 Activity” value is reported as “+++ (activity was measured to be less than 1.0 μM)”. Also, in experiment [2], the Emax fell in the range of 25 to 100% and the “M1 Activity” value is listed as “+++ (activity was measured to be less than 1.0 μM)”.

On to `CCOC(=O)N1CCC(N2CCC3(CC2)CN(CC2CCCCC2)Cc2ccccc23)CC1` [compound 87], for which, in experiment [1], the Emax was less than 25% and the “M4 Activity” value is recorded as “++ (activity was measured to be from 1.0 μM to 5.0 μM)”. Also, in experiment [2], the Emax is 25 to 100% and the “M1 Activity” value is “++ (activity was measured to be from 1.0 μM to 5.0 μM)”.

`CC(=O)N1Cc2ccccc2C2(CCN(C3CCN(C(=O)OC(C)C)CC3)CC2)C1` [compound 88]: in experiment [1], the Emax fell in the range of 25 to 100% and the “M4 Activity” value was “+++ (activity was measured to be less than 1.0 μM)”. In experiment [2], the Emax was in the range of 25 to 100% and the “M1 Activity” value was “+++ (activity was measured to be less than 1.0 μM)”.

For the compound `COCCN1CCC2(CC1)CN(C(C)=O)Cc1ccccc12` [compound 89], in experiment [1], the Emax was less than 25% and the “M4 Activity” value is “+ (activity was measured to be greater than 5.0 μM)”. In addition, in experiment [2], the Emax is less than 25% and the “M1 Activity” value was “+ (activity was measured to be greater than 5.0 μM)”.

For `COCCOC(=O)N1C2CCC1CC(N1CCC3(CC1)CN(C(C)=O)Cc1ccccc13)C2` (stereo not drawn) [compound 90], in experiment [1], the Emax fell in the range of 25 to 100% and the “M4 Activity” value is “+++ (activity was measured to be less than 1.0 μM)”. Moreover, in experiment [2], the Emax is 25 to 100% and the “M1 Activity” value is listed as “+++ (activity was measured to be less than 1.0 μM)”.

Regarding `CCNC(=O)N1Cc2ccccc2C2(CCN(CC3CCN(C(=O)OCC)CC3)CC2)C1` [compound 91], in experiment [1], the maximal effect (Emax) lay in the range of 25 to 100% and the “M4 Activity” value was “+++ (activity was measured to be less than 1.0 μM)”. For the same compound, in experiment [2], the maximal effect (Emax) lay in the range of 25 to 100% and the “M1 Activity” value was “+++ (activity was measured to be less than 1.0 μM)”.

For the compound `CCOC(=O)N1C2CCC1CC(N1CCC3(CC1)CN(C(=O)c1cnn(-c4ccccc4)c1C(F)(F)F)Cc1ccccc13)C2` (stereo not drawn) [compound 92], in experiment [1], the Emax was 25 to 100% and the “M4 Activity” value is “++ (activity was measured to be from 1.0 μM to 5.0 μM)”. In experiment [2], the maximal effect (Emax) was in the range of 25 to 100% and the “M1 Activity” value is given as “++ (activity was measured to be from 1.0 μM to 5.0 μM)”.

Regarding `CC(=O)N1Cc2ccccc2C2(CCN(C3CCC4(CC3)OCCO4)CC2)C1` [compound 93], in experiment [1], the maximal response (Emax) was less than 25% and the “M4 Activity” value is “+ (activity was measured to be greater than 5.0 μM)”. Further, in experiment [2], the Emax was 25 to 100% and the “M1 Activity” value was “+ (activity was measured to be greater than 5.0 μM)”.
